Data from PMC4361741 (Journal of psychopharmacology (Oxford, England), 2012).
Counter-ions that a name gives are not always drawn.

Columns and labels:
[1] = target: human κ-receptor (Homo sapiens, UniProt P41145); test: [3H]-diprenorphine competitive binding assay, CHO-κ cell membranes; details: from Ki values, Table 1
[2] = tested on: CD-1 mice; test: Elevated-plus maze; type: in vivo
[3] = tested on: CD-1 mice; test: Light dark box; type: in vivo; details: 8 and 15 d post-injection; diazepam 1 mg/kg 30 min prior
[4] = tested on: CD-1 mice; test: Forced swim test; type: in vivo
[5] = tested on: CD-1 mice; test: Tail suspension test; type: in vivo; details: pilot studies, fluoxetine 10 mg/kg; control 6.9 ± 0.7 N
[6] = tested on: CD-1 mice; test: Sucrose consumption test; details: fluoxetine 10 mg/kg, vs saline-treated controls
[7] = target: δ-receptor (Rattus norvegicus, UniProt P33533); test: [3H]-diprenorphine competitive binding assay, C6-δ cell membranes
[8] = target: κ-receptors (Cavia porcellus, UniProt P41144); test: Isolated guinea-pig ileum, U50,488 concentration-response curves
[9] = tested on: CD-1 mice; test: Warm water tail-withdrawal test, block of U50,488-induced antinociception; type: in vivo; details: U50,488 10 mg/kg, single injection
[10] = tested on: Wistar rats; test: κ-agonist; type: in vivo; details: 1 mg/kg
[11] = tested on: κ-receptors; details: single injection, ref Endoh et al., 1992, Jones and Holtzman; cited from earlier work
[12] = tested on: rat; details: 20mg/kg; ref Wiley et al., 2009; cited from earlier work
[13] = tested on: rats; details: ref Wiley et al., 2009; cited from earlier work
[14] = tested on: μ-receptors; test: Isolated guinea-pig ileum, DAMGO concentration-response curves; details: agonist at maximal doses
[15] = diazepam 1 mg/kg 30 min prior to test, each test day

Compound: NC(N)=Nc1ccc2[nH]c3c(c2c1)C[C@@]1(O)[C@H]2Cc4ccc(O)c5c4[C@@]1(CCN2CC1CC1)[C@H]3O5 [GNTI, 5’-guanidinonaltrindole]
- κ-selectivity vs. δ [1]: ~4

Compound: CN1C(=O)CN=C(c2ccccc2)c2cc(Cl)ccc21 [diazepam]
- EPM entries into the open arms [2, 15]: significantly increased
- EPM time spent in the open arms [2, 15]: significantly increased
- LDB time spent in the lit compartment [3]: significantly different from saline treated controls

Compound: CNCCC(Oc1ccc(C(F)(F)F)cc1)c1ccccc1 (centres unmarked) [fluoxetine, fluoxetine hydrochloride]
- FST time spent immobile ([4]; fluoxetine 10 mg/kg 30 min prior, days 6 and 13): decreased the time spent immobile
- TST average force [5]: 7.7 ± 0.5 N
- increase in sucrose consumption [6]: 40%

Compound: Oc1ccc2c3c1O[C@H]1c4[nH]c5c(c4C[C@@]4(O)[C@@H](C2)N(CC2CC2)CC[C@]314)C[C@@]1(O)[C@H]2Cc3ccc(O)c4c3[C@@]1(CCN2CC1CC1)[C@H]5O4 [norBNI, Norbinaltorphimine]
- Ki [7]: 0.46 ± 0.09 nM
- reversibility of κ-antagonist effect on washout [8]: reversed on washout
- effect on U50,488 Emax ([8]; increasing antagonist concentrations): without significant affect on Emax
- pA2 Schild plot (+ 95% CI), κ ([8]; vs U50,488, n=4 tissues): 8.30
- effect on antinociceptive effects of U50,488 (overall) [9]: significantly reduced the antinociceptive effects of U50,488
- reduction of U50,488-evoked diuresis ([10]; 8 d post-treatment): about 30%
- reduction of U50,488-evoked diuresis ([10]; 15 d post-treatment): maintained at 15 d post-treatment
- EPM number of entries into the open arms ([2]; 7 d post-injection): significantly increased
- EPM time spent in the open arms ([2]; 7 d post-injection): significantly increased the time spent
- EPM time spent in the open arms ([2]; 14 d post-injection, 1 and 10 mg/kg): significantly increased the time spent in the open arms
- FST time spent immobile ([4]; 6 and 13 d post-injection of antagonist): significantly decreased the time spent immobile
- behavioural effects in the FST still apparent, time post-injection ([4]; single injection): up to 13 days post-injection
- time maximal levels maintained [11]: 7 to 10 days
- time of peak effects post-administration [11]: ~ 24 h
- time of returning to control levels [11]: 3–4 weeks
- duration of antidepressant-like effects in the rat FST [12]: up to 4 wks post-injection
- effect on sucrose (0.5%) consumption [13]: had no effect on sucrose (0.5%) consumption
- reversal of the effects of U50,488 on sucrose consumption [13]: did reverse the effects of U50,488

Compound: DAMGO
- inhibition of electrically-evoked twitches [14]: ~ 90%
